Test results published in PMC7099587 (ACS Central Science, 2020).
Numbered stars: 1 amine (or outer) side, 2 acyl side, 3 side chain; on linkers, the order of the positions; unused ones are H or OH. Bridge positions count the residues as written; N and C are the ends. Square brackets hold non-standard residues; d marks the D form. Ends that are not written are not given here. Peptide text beside a SMILES is read from it. CH2CH2 = C(C[*:2])[*:1]

How the values were obtained:
Sonic Hedgehog (Shh) = Sonic Hedgehog (Shh) (Homo sapiens, UniProt Q15465); assay: Shh binding assay
Shh = conditions: read-out: KD (Shh); cited from earlier work
[1] = target: HHIP L2 linear peptide L2 loop (Homo sapiens) (UniProt Q96QV1); conditions: cited from earlier work
[2] = target: Sonic Hedgehog construct with N-terminal poly-His tag and TEV-cleavable linker ("Shh") (UniProt Q15465); assay: ELISA
Keap1 Kelch domain (KKD) = Keap1 Kelch domain (KKD) (Homo sapiens, UniProt Q14145); assay: Keap1 Kelch domain direct binding assay
[3] = target: Kelch domain of Kelch-like ECH-associated protein 1 (Keap1); assay: ELISA

Sequence of Keap1 Kelch domain (KKD) (Q14145 321-609 limits assumed): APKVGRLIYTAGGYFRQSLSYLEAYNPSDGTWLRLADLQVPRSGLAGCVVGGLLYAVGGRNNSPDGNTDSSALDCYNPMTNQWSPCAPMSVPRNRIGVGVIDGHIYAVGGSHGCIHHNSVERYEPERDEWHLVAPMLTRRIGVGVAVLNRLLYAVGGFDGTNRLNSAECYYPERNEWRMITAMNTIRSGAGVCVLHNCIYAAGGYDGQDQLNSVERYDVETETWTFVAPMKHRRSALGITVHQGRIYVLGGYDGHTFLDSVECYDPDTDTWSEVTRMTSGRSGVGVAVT

For `CSCC[C@@H]1NC(=O)[C@H](C)NC(=O)[C@H](CCC(=O)O)NC(=O)[C@@H](NC(=O)[C@@H]2CCCN2C(=O)[C@H](CO)NC(=O)[C@H](CO)NC(=O)CNC(=O)[C@H](CO)NC(=O)CNC(=O)[C@H](CO)NC(=O)CNC(=O)[C@H](CCCCN)NC(=O)[C@H](CC(=O)O)NC(=O)[C@H](CC(=O)O)NC(=O)[C@H](CC(=O)O)NC(=O)[C@H](CC(=O)O)NC(=O)[C@H](CCCCN)NC(=O)[C@H](Cc2ccc(O)cc2)NC(=O)[C@H](CC(=O)O)NC(=O)[C@@H](N)CCSC)Cc2ccc(cc2)OCCSC[C@@H](C(=O)N[C@H](C(=O)N[C@@H](CC(=O)O)C(=O)N[C@H](C(=O)O)[C@@H](C)O)[C@@H](C)O)NC(=O)[C@H](CCSC)NC(=O)[C@H](CC(=O)O)NC1=O` [Shh-m1] (H-MDYKDDDDKGSGSGSSPYEAMDMCTDT-OH; linker 18-24 via CH2CH2; N-terminus and C-terminus assumed), the Kd (Sonic Hedgehog (Shh)) was 550 nM.

In the case of `CSCC[C@@H]1NC(=O)[C@H](CCC(=O)O)NC(=O)[C@H](CCC(=O)O)NC(=O)[C@@H](NC(=O)[C@H](CC(=O)O)NC(=O)[C@H](CC(=O)O)NC(=O)[C@H](CC(C)C)NC(=O)[C@@H](NC(=O)[C@H](CO)NC(=O)CNC(=O)[C@H](CO)NC(=O)CNC(=O)[C@H](CCCCN)NC(=O)[C@H](CC(=O)O)NC(=O)[C@H](CC(=O)O)NC(=O)[C@H](CC(=O)O)NC(=O)[C@H](CC(=O)O)NC(=O)[C@H](CCCCN)NC(=O)[C@H](Cc2ccc(O)cc2)NC(=O)[C@H](CC(=O)O)NC(=O)[C@@H](N)CCSC)[C@@H](C)O)Cc2ccc(cc2)OCCSC[C@@H](C(=O)N[C@@H](CO)C(=O)N[C@@H](CC(=O)O)C(=O)N[C@H](C(=O)O)[C@@H](C)O)NC(=O)CNC(=O)[C@H](CC(=O)O)NC1=O` [cyclic version of the HHIP L2 sequence] (H-MDYKDDDDKGSGSTLDDYEEMDGCSDT-OH; linker 18-24 via CH2CH2; C-terminus assumed), the “fold lower affinity vs Shh-m1” value (Sonic Hedgehog (Shh)) is reported as roughly 7 fold.

In the case of `O=C(C[C@@H]1C/C=C/CCC(=O)O[C@H](c2ccccc2)CNC1=O)NCc1ccc(Cl)cc1` [robotnikinin], the Kd (Shh) is given as 3100 nM.

For Sonic Hedgehog (from UniProt Q15465), the Kd [1] is listed as 150000 nM.

For “TLSW(Y*)EAMDMCTD (sidechain bridge or staple) [HL2-m5]”, the Kd (Shh) is listed as 170 nM.

Work on “cyclic version of the HHIP L2 sequence (from UniProt Q96QV1 375-387) (peptide)” yielded a Kd [2] of 3600 nM.

In the case of “cyclo[Y*D(X)ETGEC] (sidechain bridge or staple) [KKD(6X)-m1]”, the “fold higher affinity vs KKD-m1” value (Keap1 Kelch domain (KKD)) is reported as roughly 3 fold.

With “cyclo[Y*D(X)ETGEC] (sidechain bridge or staple) [KKD(6X)-m2]” the “fold higher affinity vs KKD-m1” value (Keap1 Kelch domain (KKD)) was roughly 3 fold.

For [O2beY]DIETGEC (thioether 1-8) [KKD(6X)-m2], the Kd [3] was 40 nM.

For [O2beY]DAETGEC (thioether 1-8) [KKD(6X)-m1], the Kd [3] was 40 nM.
